{"source": "patent US12295997B2", "about": "“Prostate neoantigens and their uses” (Janssen Biotech, Inc., priority 2020, dated 2025)", "tested_on": "CD8+ and CD4+ T cells (autologous CD3+ Pan-T cells isolated from human normal PBMCs)", "assay": "Endogenous autologous normal donor restimulation assay (Ad5-transduced CD1c+ dendritic cells, TNFα/IFNγ flow cytometry)", "format": "cell-based", "settings": "Table 27, endogenous expression, peptide pool restimulation, highest across sixteen normal donors", "protocol": "CD1c+ Dendritic Cells (DC) isolated from human normal PBMCs were thawed using media (IMDM (Gibco) supplemented with glutamine, HEPES, 5% human serum (Sigma), and 1×Pen-Strep). DC cells were resuspended in media supplemented with IL-4 (Peprotech, 80 ng/mL) and GM-CSF (Gibco, 80 ng/mL), plated in 6 well microplates, and rested overnight at 37° C. (5% CO2). The following day, DC cells were counted and plated in a 96 well round bottom microplate at a concentration of 30,000 viable cells per well. Ad5 vectors (Vector Biolabs) were dilute in media to an MOI (Multiplicity Of Infection) of 5000 based on Plaque Forming Units. Ad5 vectors for the CEF pool and a “null” were used as controls. DCs were transduced with Ad5 vectors overnight at 37° C. (5% CO2). The following day, the Ad5 vectors were washed off the plate by three sequential centrifugation/aspiration steps using sterile Phosphate Buffered Saline. After the final wash, transduced DCs were resuspended in 100 μL media. Autologous CD3+ Pan-T cells isolated from human normal PBMCs were thawed using media. Pan-T cells were added to the irradiated DCs at 300,000 viable cells per well (100 μL/well). Human IL-15 (Peprotech) was added to all wells at final concentration of 10 ng/mL.\nPlates were incubated at 37° C. (5% CO2) for a total of 12 days. Media was refreshed every 2-3 days with IL-15 (10 ng/mL final concentration) and IL-2 (R&D systems, 10 IU/mL final concentration). On day 11 lyophilized peptides (15-mer overlapping peptides) were solubilized in 100% DMSO and pooled by neoantigen to between 5 mg/mL and 20 mg/mL. Neoantigen peptides pools were added to cells for a final concentration of 2.5 μg/mL to 10 μg/mL. CEF Peptide Pool “Plus” (Cellular Technologies, Ltd.) was utilized as a positive control and DMSO at the same final concentration as the experimental peptides was utilized as a negative control. Protein Inhibitor Cocktail (eBioscience) was added to every well and plate was incubated overnight at 37° C. (5% CO2).\nOn day 12, cells were stained for intracellular flow cytometry analysis. The cells were washed with PBS and stained with Live/Dead Fixable Aqua Dead Cell stain (Thermo-Fisher). Following the live/dead stain, cells were blocked using Biotin-Free Fc Receptor Blocker (Accurate Chemical & Scientific Corp). Extracellular cellular flow panel ([…] per well in 50 μL) consisted of CD3 PerCP-Cy5.5 (Biolegend), CD4 BV421 (Biolegend), and CD8 APC-Cy7 (Biolegend). After extracellular staining, cells were fixed using Foxp3/fTranscription Factor Staining Buffer Set (eBioscience) and stained for intracellular proteins (1:50 dilution) using TNFα FITC (R&D Systems) and IFNγ BV785 (Biolegend). Cells were washed and resuspended in stain buffer and analyzed using a BD Celesta flow cytometer.\nFlow cytometry cell staining analysis was completed using FlowJo v10. Cells were gated on live, singlet, CD3+ cells. The CD8+ and CD4+ T cells were analyzed for TNFα/IFNγ expression and the frequency of double positive TNFα/IFNγ CD8+ and the frequency of double positive TNFα/IFNγ CD4+ T cells were recorded. Responses were assessed to be positive when the frequency of double positive TNFα/IFNγ CD8+ or TNFα/IFNγ CD4+ T cells due to stimulation with an experimental peptide pool was increased greater than or equal to 3-fold over the DMSO only negative control for that donor and at least 0.01%.\nFor three of the neoantigens, an Ad5 vector was designed to transduce normal Dendritic cells with the neoantigens. This assay assessed the ability of the endogenously expressed and presented neoantigens to activate autologous T cells following overlapping 15-mer peptide pools restimulation using the endogenous autologous normal donor restimulation assay described in Example 1 utilizing TNFα and IFNγ production by CD8^+ and CD4^+ T cells as a readout. […] Sixteen donors were used to assess endogenous immunogenicity.", "data": [{"sequence": "YEAGMTLGGKILFFLFLLLPLSPFSLIF (listed as Homo sapiens) [Neoantigen P87]", "values": [{"measurement": "Maximum Fold Change Over Background CD4+ cells", "result": 2.41}, {"measurement": "Maximum Fold Change Over Background CD8+ cells", "result": 2.47}, {"measurement": "Maximum Frequency of TNFα/IFNγ Double Positive CD4+ T cells", "result": 0.079}, {"measurement": "Maximum Frequency of TNFα/IFNγ Double Positive CD8+ T cells", "result": 0.39}]}]}
